For data set [1], the system named is artificial lipid membrane. Briefly: PAMPA membrane permeability assay. It counts as in vitro ADME. As to conditions: pH 7.4 buffer, GIT lipid, 4 hours incubation. The procedure:
The PAMPA assay (pION, Inc., Woburn Mass.) was used to determine the ability of compounds of the invention to cross an artificial lipid membrane by passive diffusion. Test compounds were dissolved in DMSO (10 mM) and diluted 200-fold in buffer (pION Inc., pH 7.4) to provide 50 uM stock solutions. Buffer (150 μL) was added to a UV blank plate and stock solutions (150 μL) were transferred to a UV reference plate. The blank and reference spectrum were read using a spectrophotometer. Stock solutions (200 μL) were added to the donor plate of the PAMPA sandwich plate and an accept plate painted with GIT lipid (pION Inc., 5 μL) was placed on top. Buffer (200 μL) was added to the acceptor plate and the PAMPA sandwich plate was incubated for 4 hours. Aliquots (150 μL) from the acceptor plate were added to a UV plate and read as acceptor spectrum. Aliquots (150 μL) of the donor solutions were added to a UV analysis plate and read as donor spectrum. The permeability coefficient of test compounds was calculated using PAMPA Explorer™ software (version 3.5.0.4) based on the AUC of the reference plate, the donor plate, and the acceptor plate.

The target in data set [2] is T1, NaV1.7 (Homo sapiens, UniProt Q15858).
T1 construct: expressed in transfected cells; host or cells: Tetracycline-inducible cell line kept under hygromycin and blasticidin selection
T1 sequence (Q15858 whole entry): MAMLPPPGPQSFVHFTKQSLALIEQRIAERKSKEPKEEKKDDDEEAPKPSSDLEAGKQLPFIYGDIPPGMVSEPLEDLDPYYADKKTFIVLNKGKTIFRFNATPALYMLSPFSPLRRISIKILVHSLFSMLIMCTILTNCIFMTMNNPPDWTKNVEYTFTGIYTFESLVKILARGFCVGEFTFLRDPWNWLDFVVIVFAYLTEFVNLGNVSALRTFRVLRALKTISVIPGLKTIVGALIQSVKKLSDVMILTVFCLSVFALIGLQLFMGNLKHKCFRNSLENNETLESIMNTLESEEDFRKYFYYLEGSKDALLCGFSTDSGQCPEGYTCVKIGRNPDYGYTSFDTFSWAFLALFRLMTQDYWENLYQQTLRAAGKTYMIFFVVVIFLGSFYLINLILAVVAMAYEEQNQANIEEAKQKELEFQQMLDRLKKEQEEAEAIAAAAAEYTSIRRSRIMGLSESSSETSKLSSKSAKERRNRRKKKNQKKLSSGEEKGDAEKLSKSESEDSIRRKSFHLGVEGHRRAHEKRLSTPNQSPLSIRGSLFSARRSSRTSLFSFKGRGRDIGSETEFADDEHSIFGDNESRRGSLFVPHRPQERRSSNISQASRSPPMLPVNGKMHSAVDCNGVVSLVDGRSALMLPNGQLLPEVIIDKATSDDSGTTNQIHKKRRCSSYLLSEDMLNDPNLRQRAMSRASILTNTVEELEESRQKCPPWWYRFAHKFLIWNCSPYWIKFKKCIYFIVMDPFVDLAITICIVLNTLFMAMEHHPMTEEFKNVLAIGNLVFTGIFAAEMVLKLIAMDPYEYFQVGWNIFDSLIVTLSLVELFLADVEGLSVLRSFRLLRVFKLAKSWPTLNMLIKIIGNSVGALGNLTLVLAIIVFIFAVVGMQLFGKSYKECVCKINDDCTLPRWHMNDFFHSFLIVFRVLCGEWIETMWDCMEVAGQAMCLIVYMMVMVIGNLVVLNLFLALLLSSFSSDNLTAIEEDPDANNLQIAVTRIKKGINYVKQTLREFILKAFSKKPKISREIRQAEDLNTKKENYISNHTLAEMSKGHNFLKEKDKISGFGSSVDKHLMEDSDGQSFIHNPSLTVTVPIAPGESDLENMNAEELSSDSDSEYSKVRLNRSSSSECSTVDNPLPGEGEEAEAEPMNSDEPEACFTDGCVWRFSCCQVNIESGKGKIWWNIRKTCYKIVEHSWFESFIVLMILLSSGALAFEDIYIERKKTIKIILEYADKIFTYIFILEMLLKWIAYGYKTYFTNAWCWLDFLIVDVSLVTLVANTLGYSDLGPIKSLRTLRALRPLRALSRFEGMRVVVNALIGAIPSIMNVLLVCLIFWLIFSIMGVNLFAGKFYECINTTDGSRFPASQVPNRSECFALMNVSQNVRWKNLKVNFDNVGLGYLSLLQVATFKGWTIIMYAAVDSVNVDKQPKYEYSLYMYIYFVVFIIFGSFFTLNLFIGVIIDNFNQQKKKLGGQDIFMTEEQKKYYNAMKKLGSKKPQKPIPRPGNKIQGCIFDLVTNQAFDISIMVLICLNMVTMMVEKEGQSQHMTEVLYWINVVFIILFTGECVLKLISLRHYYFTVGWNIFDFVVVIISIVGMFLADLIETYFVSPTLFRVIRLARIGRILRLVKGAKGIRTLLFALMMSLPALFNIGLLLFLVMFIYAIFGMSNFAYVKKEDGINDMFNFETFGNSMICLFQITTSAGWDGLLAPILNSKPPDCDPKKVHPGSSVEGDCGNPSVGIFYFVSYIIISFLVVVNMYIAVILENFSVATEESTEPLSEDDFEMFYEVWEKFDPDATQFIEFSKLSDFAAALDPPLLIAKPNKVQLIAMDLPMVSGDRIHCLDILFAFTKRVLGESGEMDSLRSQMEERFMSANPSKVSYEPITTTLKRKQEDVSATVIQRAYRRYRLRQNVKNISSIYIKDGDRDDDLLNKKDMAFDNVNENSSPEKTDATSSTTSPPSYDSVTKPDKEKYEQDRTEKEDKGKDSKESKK
Description: Nav1.7 whole cell patch clamp, external block (extracellular application). The data set is classed as cell-based. The following applies: test concentration 30 μM, compound in external solution for 5 minutes, 5 Hz stimulation. The procedure:
(§1) The compounds were synthesized according to the described method and tested for the ability to inhibit voltage-gated sodium channels.
(§2) NaV1.7 was expressed upon induction with tetracycline. Cells were cultured in DMEM containing 10% dialyzed Fetal Bovine Serum (VWR, Radnor, Pa.), 1% Glutamax (VWR, Radnor, Pa.), 1% Penicillin-Streptomycin (VWR, Radnor, Pa.), 100 mg/L Hygromycin (Thermo Fisher Scientific, Waltham, Mass. and 5 mg/L Blasticidin (Alfa Aesar, Haverhill, Mass.). Cells were grown and maintained at 37° C. in a humidified environment containing 10% CO2 in air. Cells were detached from the culture flask for passage and harvested using 0.05% Trypsin-EDTA (Thermo Fisher Scientific, Waltham, Mass.). To induce NaV1.7, cells were induced with tetracycline ([…], IBI Scientific, Peosta, Iowa) the day before recording and plated onto 24-well plates. Cells were washed with DPBS (VWR, Radnor, Pa.), trypsinized and then triturated five times in 10 mL of growth media to break apart cell aggregates. For one 24-well plate, 2 mL of cell suspension was mixed with 23 mL of fresh growth media and […] tetracycline added. 1 ml of mixed media with cells was then added to each well of a 24-well plate, with a 12 mm coverslip already placed in the bottom of the well. Cells were then incubated in 37° C. and 10% CO2 overnight.
(§3) The intracellular solution contained the following (in mM) CsCl 135, NaCl 10, EGTA 10, HEPES 10, MgCl2 2, adjusted to pH 7.2 with CsOH. The external solution was a normal Ringer solution containing (in mM) NaCl 155, HEPES 10, glucose 10, KCl 3.5, CaCl2 1.5, MgCl2 1 adjusted to pH 7.4 with NaOH. CsCl is from Alfa Aesar, Haverhill, Mass. All other chemicals are from Sigma-Aldrich, St. Louis, Mo. In order to test the degree of internal block by test compounds the compounds were dissolved in internal solution at the indicated test concentration. […] In order to test the degree of external block by test compounds the compounds were dissolved in external solution at the indicated test concentration.
(§4) 18-24 hours after cells were induced with tetracycline, coverslips were placed into a chamber filled with Normal Ringer solution at room temperature and the chamber placed on a microscope. Pipettes were pulled from borosilicate glass on a P97 puller (Sutter Instrument, Novato, Calif.) and polished with a MF-830 Microforge (Narishige International USA, Inc., Amityville, N.Y.) to have a resistance of 1.5-2.5 MQ when filled with CsCl internal solution at room temperature. Healthy cells (those that are round and translucent with no visible blemishes) were chosen for seal formation. A seal was formed between the pipette and the cell, and a brief pulse of suction was used to “break in” and establish the whole-cell configuration. The membrane potential was held at −100 mV before the voltage protocol began. Only cells with series resistance between 1.5-5 MQ were retained for analysis. The voltage protocol was as follows: Cells were held at −100 mV for 12 ms followed by a hyperpolarizing step to −105 mV for 12 ms to monitor the leak. Cells were then stepped back to −100 mV for 40 ms. Cells were then depolarized to −20 mV for 10 ms and then returned to −100 mV for 26 ms (The FIGURE).
(§5) Once the recording was started, the voltage protocol was run at 30 second intervals for 5 minutes to get a stable baseline. […] Currents were recorded using PatchMaster software with Heka EPC10 (HEKA Electronics, Lambrecht, Germany). […]
(Patch clamp records ionic current or voltage across a cell membrane.)

Data set [3] concerns the target T1, NaV1.7. Briefly: Nav1.7 whole cell patch clamp, internal block (intracellular inhibition). The data set is classed as cell-based. The following applies: test concentration 10 μM, compound in internal solution, 5 Hz stimulation. Here is the method:
as §1, §2, §3, §4, §5

A value given as a limit tells only on which side of the number the result lay.

The term Papp denotes a coefficient for how fast a substance crosses the barrier. Low readings indicate slow passage, high ones fast passage. By inhibition is commonly meant the change of the read-out against control, counted positive when it falls.

Regarding `Cc1cccc(C)c1NC(=O)C[n+]1cccc(-c2ccccc2)c1.[Br-]` [1′A, 1-(2-((2,6-dimethylphenyl)amino)-2-oxoethyl)-3-phenylpyridin-1-ium bromide], the apparent permeability (Papp) at 4 h, 50 uM in data set [1] is < 1 ×10⁻⁶ cm/s. Further, the inhibition at 30 µM on NaV1.7 [2] was < 45%. Further, the inhibition at 10 µM against NaV1.7 [3] was > 75%.
The matching figures for `Cc1cccc(C)c1NC(=O)C[n+]1ccccc1-c1ccccc1.[Br-]` [2′A, 1-(2-((2,6-dimethylphenyl)amino)-2-oxoethyl)-2-phenylpyridin-1-ium bromide]: < 1 ×10⁻⁶ cm/s, < 45% and > 75%.
The matching figures for `CCc1ccc[n+](CC(=O)Nc2c(C)cccc2C)c1.[Br-]` [3′A, 1-(2-((2,6-dimethylphenyl)amino)-2-oxoethyl)-3-ethylpyridin-1-ium bromide]: < 1 ×10⁻⁶ cm/s, < 45% and > 75%.
For `CCc1cccc[n+]1CC(=O)Nc1c(C)cccc1C.[Br-]` [4′A, 1-(2-((2,6-dimethylphenyl)amino)-2-oxoethyl)-2-ethylpyridin-1-ium bromide], in that order: < 1 ×10⁻⁶ cm/s, < 45% and > 75%.
For the compound `CCOC(=O)c1ccc[n+](CC(=O)Nc2c(C)cccc2C)c1` [5′A, 1-(2-((2,6-dimethylphenyl)amino)-2-oxoethyl)-3-(ethoxycarbonyl)pyridin-1-ium bromide], at NaV1.7 [2], the inhibition at 30 µM was < 45%. Moreover, the inhibition at 10 µM against NaV1.7 [3] was > 75%.
